Experimental data from patent US20100120662A1, “Glucose uptake modulator and method for treating diabetes or diabetic complications” (POSTECH Foundation, priority 2005, published 2010).

Tests used:
3T3-L1 adipocytes [1] = experiment: [14C] 2-deoxy-D-glucose uptake in 3T3-L1 adipocytes; format: cell-based; details: for stimulation of glucose uptake: equimolar 20 μM, 10 min
Procedure: Cell culture: 3T3-L1 fibroblasts were grown to confluence in DMEM containing a high glucose concentration, 10% fetal bovine serum, 50 U of penicillin per ml, and 50 ug of streptomycin per ml and maintained in a 5% CO2 humidified atmosphere at 37° C. 3T3-L1 was induced to differentiate into adipocytes, as described previously (van den Berghe, N., et al., Mol Cell Biol 14, pp. 2372-2377, 1994).
Glucose uptake measurement. For measuring glucose uptake in 3T3-L1 adipocytes, cells were grown in serum-free DMEM for 16 h and then incubated in the absence or presence of insulin or lysophospholipids for the indicated times at 37° C. Uptake was measured by adding 1 μCi of [^14C] 2-deoxy-D-glucose and 3 mM 2-deoxy-D-glucose. After 10 min, the assay was terminated by two quick washes with ice-cold PBS. Cells were lysed in 0:5 ml of lysis buffer containing 0.5 N NaOH and 0.1% SDS. The cell lysates were used for liquid scintillation counting and nonspecific uptake was assayed in the presence of 10 μM cytochalasin B (van den Berghe, N., et al., Mol Cell Biol 14, pp. 2372-2377, 1994).
FIG. 2A to 2D show the effects of LPC on the glucose uptake in 3T3-L1 adipocytes. […] After these treatments, [^14C] 2-deoxy-D-glucose uptake was measured for 10 min as described in Material Methods. […] FIGS. 2C and 2D show relative [^14C] 2-deoxy-D-glucose uptake in 3T3-L1 adipocytes incubated in the absence (control) or presence of equimolar concentrations (20 μM) of myristoyl lysophosphatidylcholine (14:0 LPC), palmytoyl lysophosphatidylcholine (16:0 LPC), stearoyl lysophosphatidylcholine (18:0 LPC), palmytoyl lysophsophatidylethanolamine (16:0 LPE), palmytoyl lyso-phosphatidylinositol (16:0 LPI), palmytoyl lysophosphatidylglycerol (16:0 LPG) for 10 min. Values are mean±SE of three independent experiments performed in triplicate. *P<0.05 vs. basal.

C2C12 muscle cells = experiment: Glucose uptake in C2C12 muscle cells (LPC); format: cell-based; details: data not shown
GLUT4 = GLUT4 translocation to the plasma membrane in 3T3-L1 adipocytes; format: cell-based; details: 20 μM, 10 min, plasma membrane fraction
Procedure: Membrane fractionation of adipocytes. For obtaining total membranes (TM) from 3T3-L1 adipocytes, cells were collected into 10 ml of ice-cold HES buffer (250 mM sucrose, 1 mM EDTA, 1 mM phenylmethylsulfonyl fluoride [PMSF], 1 μM pepstatin, 1 μM aprotinin, 1 μM leupeptin, and 20 mM HEPES, pH 7.4) and subsequently homogenized with 30 strokes in a glass Dounce homogenizer at 4° C. After centrifugation at 1,000 g for 5 min at 4° C. to remove unbroken cells, the supernatant was then centrifugated at 212,000 g for 90 min at 4° C. to yield a pellet of total cellular membranes. To obtain the plasma membrane (PM) subcellular fraction from 3T3-L1 adipocytes, differential ultracentrifugation was used as described previously (Perrini, S., et al., Diabetes 53, pp. 41-52, 2004).
Immunoblotting. For preparing total cell lysates, 3T3-L1 adipocytes were washed with Ca^2+/Mg^2+-free PBS and then lysed in the lysis buffer (50 mM HEPES, pH 7.2, 150 mM NaCl, 50 mM NaF, 1 mM Na3VO4, 10% glycerol, 1% Triton X-100). The lysates were centrifuged at 15,000 rpm for 15 min at 4° C. […]
FIGS. 3A and 3B show LPC stimulates GLUT4 translocation in 3T3-L1 adipocytes. […] In each experiment, the relative increase or decrease in the integrated density value (IDV) of GLUT4 after stimulation with compounds is calculated. B) Quantitation of relative increases is depicted. […]

IRS1 and AKT = IRS1 and AKT phosphorylation in 3T3-L1 adipocytes (immunoblot); format: cell-based; details: LPC treatment of 3T3-L1 adipocytes
Procedure: Immunoblotting. For preparing total cell lysates, 3T3-L1 adipocytes were washed with Ca^2+/Mg^2+-free PBS and then lysed in the lysis buffer (50 mM HEPES, pH 7.2, 150 mM NaCl, 50 mM NaF, 1 mM Na3VO4, 10% glycerol, 1% Triton X-100). The lysates were centrifuged at 15,000 rpm for 15 min at 4° C. The proteins were denatured by boiling in laemmli sample buffer for 5 min at 95° C., separated by SDS-PAGE. SDS-gel was transferred to nitrocellulose membrane using Hoefer wet transfer system. Membranes were blocked in TTBS (20 mM Tris-HCl, pH 7.6, 150 mM NaCl, 0.05% Tween 20) containing 5% skimmed milk powder for 30 min and then incubated with antibodies for 3 hours. After washing membranes several times with TTBS, the blots were incubated with HRP (Horseradish peroxidase)-conjugated goat anti-rabbit for 1 hour. The blots were washed with TTBS and developed by ECL.

3T3-L1 adipocytes [2] = experiment: Cytotoxicity of LPC concentration used on 3T3-L1 adipocytes; format: cell-based; details: 20 μM LPC
male ICR mice [3] = experiment: Acute blood glucose lowering in normal ICR mice after intravenous lysophospholipid; format: in vivo, mouse
Procedure: (§1) Animals. Male ICR mice were purchased from hyochang science (ROK). C57BLKSJ-db/db mice were purchased from SLC (Japan). After intravenous injection of LPC, blood glucose was measured regularly with a portable glucose meter (Gluco-Dr, ROK) after tail snipping. For measurement of serum insulin, blood samples of mice were determined with the insulin-RIA Kit (LINCO, Missouri). Insulin deficient mice were induced in male ICR mice by two consecutive daily intraperitoneal injection of STZ (200 mg/kg) dissolved in sodium citrate (pH 5.5). On the third day after the last STZ injection, acute glucose lowering effect was analyzed after intravenous injection of vehicle, LPC or insulin as described above.
(§2) Eight-week-old male mice were intravenously injected with PBS, insulin, LPC, or LPE. Blood glucose was monitored after dosing (0 to 120 min). […] All animals had free access to water. Animal care was in accordance with institutional guidelines. All data are shown as means±SE (n=5-6).*P<0.05.

male ICR mice [4] = experiment: Serum insulin level in mice after single intravenous injection; format: in vivo, mouse
Procedure: as §1, §2

[5] = tested on: STZ-treated insulin deficient ICR male mice; experiment: Acute glucose lowering in streptozotocin (STZ)-treated insulin deficient ICR mice; format: in vivo, mouse; details: 30 μmol/kg i.v. LPC
Procedure: as §1, §2

C57BLKSJ-db/db mice = experiment: Acute glucose lowering in insulin-resistant obese db/db mice; format: in vivo, mouse; details: injection of LPC
Procedure: as §1, §2

[6] = 3T3-L1 adipocytes, 10 min incubation

For `CCCCCCCCCCCCCCCC(=O)OC[C@@H](O)COP(=O)([O-])OCC[N+](C)(C)C` [LPC, palmytoyl lysophosphatidylcholine], the “incubation time at which glucose uptake was maximally increased” value (3T3-L1 adipocytes [1]; 20 μM, 0 to 20 min) was 10 min, the “concentration of initial statistically significant effect on glucose uptake” value (3T3-L1 adipocytes [1]; [6]) was 1 µM and the “concentration of maximal effect on glucose uptake” value (3T3-L1 adipocytes [1]; [6]) was 20 µM. For the same compound, the “time and dose dependence of glucose uptake” value (3T3-L1 adipocytes [1]; 3T3-L1 adipocytes, various concentrations) was “time- and dose-dependent increase in glucose uptake”, the “stimulation of glucose uptake” value (3T3-L1 adipocytes [1]) was “specifically stimulated glucose uptake” and the “stimulation of glucose uptake” value (3T3-L1 adipocytes [1]; listed as palmytoyl LPC) was “stimulated glucose uptake”. The “rate of glucose uptake in C2C12 muscle cells” value (C2C12 muscle cells) was “increased the rate of glucose uptake in a dose dependent manner”, the “PM content of GLUT4 proteins” value (GLUT4) was 180 % of basal and the “phosphorylation of IRS1 and AKT” value (IRS1 and AKT) was “had no effects on phosphorylation of IRS1 and AKT”. For the same compound, the cytotoxicity (3T3-L1 adipocytes [2]) was “not cytotoxic”, the “time to statistically significant fall in blood glucose” value (male ICR mice [3]; 15 or 30 μmol/kg i.v.) was at most 30 min and the “blood glucose levels in ICR mice” value (male ICR mice [3]; 15 or 30 μmol/kg i.v., acute) was “statistically significant fall in blood glucose levels”. For the same compound, the “blood glucose lowering, comparison of lysophospholipid species” value (male ICR mice [3]; doses equimolar to 30 μmol/kg i.v., ICR mice) was “significant effect on the blood glucose lowering”, the “change in blood insulin levels” value (male ICR mice [4]) was “not due to changes in blood insulin levels” and the “blood glucose concentrations in STZ-treated insulin deficient mice” value [5] was “significantly reduced blood glucose concentrations”. The “blood glucose in insulin-resistant obese db/db mice” value (C57BLKSJ-db/db mice) was “dropped to near normal levels”.
